# Reference: patent US20060223756A1, “Endothelial cell specifically binding peptides” (priority 2002, published 2006)
# Experiments:
# PC3 cells = experiment: In vitro transduction analysis (β-galactosidase, X-gal stain) on PC3; assay type: cell-based, human
# Method: (§1) S8 cells are A549 cells stably transfected with adenoviral E1 and E2a genes under separate dexamethasone-inducible promoters (Gorziglia et al., 1996). S8 cells are cultured in IMEM (Biofluids, Rockville, Md.) with 10% heat inactivated fetal bovine serum (HIFBS). For virus production, the cells are cultured with 0.3 uM dexamethasone to induce the expression of E1 and E2a genes. H460 cells are a human non-small cell lung carcinoma (ATCC, Manassas, Va.) and are cultured in RPMI Medium 1640 (Life Technologies, Gaithersburg, Md.) with 10% HIFBS. PC3 cells are a human prostate carcinoma cell line (ATCC) and are cultured in RPMI Medium 1640 with 10% HIFBS. HeLa cells are a human cervical carcinoma cell line (ATCC) and are cultured in DMEM with 10% HIFBS. Primary human endothelial cells, in particular Human Umbilical Vein Endothelial Cells (HUVECs) are obtained from the Clonetics Corporation (Walkerville, Md.: AC-7018). The cells are cultured in the recommended medium.
# (§2) The transduction efficiency of Av3nBgPD1 is surveyed using primary human umbilical vein endothelial cells (HUVEC) and on three human carcinoma cell lines including HeLa, PC3, and H460 cells. […] The percentage of transduction is determined by light microscopy by counting the number of positively transduced blue cells per field as described previously (Stevenson, et. al, 1997).
# [1] = test system: primary human umbilical vein endothelial cells (HUVEC); experiment: In vitro transduction analysis (β-galactosidase, X-gal stain) on HUVEC; assay type: cell-based
# Method: as §1, §2
# HeLa cells = experiment: In vitro transduction analysis (β-galactosidase, X-gal stain) on HeLa; assay type: cell-based, human
# Method: as §1, §2
sequence,measurement,setting,value
CPDLHHHMC (Artificial sequence derived from human and animal adenovirus peptide sequences for binding to endothelial cell surface molecules) [PD1],"transduction compared with Av3nBg control, in words",PC3 cells,offered no advantage
same,"transduction compared with Av3nBg control, in words",[1],enhances transduction
same,"transduction compared with Av3nBg control, in words",HeLa cells,offered no advantage
